From ChEMBL document CHEMBL1201862, “PubChem BioAssay data set” (2004)
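Cells were grown in 96-well plates and exposed to each compound for 48 hours at five concentrations; endpoints were interpolated linearly between bracketing concentrations, or set to the highest concentration if not reached. GI50 is the concentration that inhibits growth by half.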 Calls of active or inactive are those of the source. Rule as the data show it: active = GI50 up to about 1.1 µM and inactive = higher.

How the values were obtained:
Assay in all cases: growth of human tumour cells (NCI), 48 h
M19-MEL = test system: M19-MEL
RXF 393 = test system: RXF 393
SF-539 = test system: SF-539
SK-MEL-2 = test system: SK-MEL-2
SK-MEL-28 = test system: SK-MEL-28
TK-10 = test system: TK-10
SW-620 = test system: SW-620
SF-268 = test system: SF-268
U-251 = test system: U-251
SNB-19 = test system: SNB-19
NCI-H23 = test system: NCI-H23
KM-20L2 = test system: KM-20L2
HOP-92 = test system: HOP-92
HCC 2998 = test system: HCC 2998
NCI-H522 = test system: NCI-H522
LXFL 529 = test system: LXFL 529
UO-31 = test system: UO-31
LOX IMVI = test system: LOX IMVI
HL-60 = test system: HL-60
MOLT-4 = test system: MOLT-4
SK-OV-3 = test system: SK-OV-3
HCT-116 = test system: HCT-116
DMS-114 = test system: DMS-114
OVCAR-8 = test system: OVCAR-8
DLD-1 = test system: DLD-1
RPMI-8226 = test system: RPMI-8226
786-0 = test system: 786-0
EKVX = test system: EKVX
CCRF-CEM = test system: CCRF-CEM
SNB-78 = test system: SNB-78
ACHN = test system: ACHN
A549 = test system: A549
SK-MEL-5 = test system: SK-MEL-5
COLO 205 = test system: COLO 205
HOP-18 = test system: HOP-18
Malme-3M = test system: Malme-3M
HT-29 = test system: HT-29
SNB-75 = test system: SNB-75
HOP-62 = test system: HOP-62
KM12 = test system: KM12
UACC-257 = test system: UACC-257
OVCAR-3 = test system: OVCAR-3
A498 = test system: A498
NCI-H460 = test system: NCI-H460
SF-295 = test system: SF-295
OVCAR-5 = test system: OVCAR-5
IGROV-1 = test system: IGROV-1
K562 = test system: K562
DMS-273 = test system: DMS-273
SN12C = test system: SN12C
UACC-62 = test system: UACC-62
HCT-15 = test system: HCT-15
OVCAR-4 = test system: OVCAR-4
NCI-H226 = test system: NCI-H226
M14 = test system: M14
CAKI-1 = test system: CAKI-1

**Q.** For `CC1c2c(Cl)nc3ccccc3c2Oc2c1c(Cl)nc1ccccc21`, which GI50 (M19-MEL) is on record?
**A.** > 100 µM (inactive)

**Q.** And the GI50 (RXF 393)?
**A.** 41.3 µM (inactive)

**Q.** What about the GI50 (SF-539) of the same molecule?
**A.** > 100 µM (inactive)

**Q.** What about the GI50 (SK-MEL-2) of the same molecule?
**A.** 64.6 µM (inactive)

**Q.** What about the GI50 (SK-MEL-28) of the same molecule?
**A.** > 100 µM (inactive)

**Q.** What about the GI50 (TK-10) of the same molecule?
**A.** 47.3 µM (inactive)

**Q.** And the GI50 (SW-620)?
**A.** 99.5 µM (inactive)

**Q.** What about the GI50 (SF-268) of the same molecule?
**A.** > 100 µM (inactive)

**Q.** And the GI50 (U-251)?
**A.** 61.9 µM (inactive)

**Q.** What about the GI50 (SNB-19) of the same molecule?
**A.** > 100 µM (inactive)

**Q.** And the GI50 (NCI-H23)?
**A.** > 100 µM (inactive)

**Q.** What about the GI50 (KM-20L2) of the same molecule?
**A.** > 100 µM (inactive)

**Q.** And the GI50 (HOP-92)?
**A.** 46.5 µM (inactive)

**Q.** What about the GI50 (HCC 2998) of the same molecule?
**A.** > 100 µM (inactive)

**Q.** What about the GI50 (NCI-H522) of the same molecule?
**A.** 43.8 µM (inactive)

**Q.** And the GI50 (LXFL 529)?
**A.** 53.5 µM (inactive)

**Q.** What about the GI50 (UO-31) of the same molecule?
**A.** 65 µM (inactive)

**Q.** What about the GI50 (LOX IMVI) of the same molecule?
**A.** > 100 µM (inactive)

**Q.** What about the GI50 (HL-60) of the same molecule?
**A.** 29.6 µM (inactive)

**Q.** And the GI50 (MOLT-4)?
**A.** 31.2 µM (inactive)

**Q.** And the GI50 (SK-OV-3)?
**A.** > 100 µM (inactive)

**Q.** And the GI50 (HCT-116)?
**A.** 74.6 µM (inactive)

**Q.** And the GI50 (DMS-114)?
**A.** 66.1 µM (inactive)

**Q.** And the GI50 (OVCAR-8)?
**A.** 85.7 µM (inactive)

**Q.** What about the GI50 (DLD-1) of the same molecule?
**A.** > 100 µM (inactive)

**Q.** What about the GI50 (RPMI-8226) of the same molecule?
**A.** 32.8 µM (inactive)

**Q.** What about the GI50 (786-0) of the same molecule?
**A.** 49.1 µM (inactive)

**Q.** And the GI50 (EKVX)?
**A.** 37.6 µM (inactive)

**Q.** And the GI50 (CCRF-CEM)?
**A.** > 100 µM (inactive)

**Q.** What about the GI50 (SNB-78) of the same molecule?
**A.** > 100 µM (inactive)

**Q.** What about the GI50 (ACHN) of the same molecule?
**A.** 51.5 µM (inactive)

**Q.** And the GI50 (A549)?
**A.** 68.4 µM (inactive)

**Q.** What about the GI50 (SK-MEL-5) of the same molecule?
**A.** 30.3 µM (inactive)

**Q.** And the GI50 (COLO 205)?
**A.** > 100 µM (inactive)

**Q.** What about the GI50 (HOP-18) of the same molecule?
**A.** 7.21 µM (inactive)

**Q.** And the GI50 (Malme-3M)?
**A.** > 100 µM (inactive)

**Q.** What about the GI50 (HT-29) of the same molecule?
**A.** 82.8 µM (inactive)

**Q.** And the GI50 (SNB-75)?
**A.** 56 µM (inactive)

**Q.** What about the GI50 (HOP-62) of the same molecule?
**A.** > 100 µM (inactive)

**Q.** And the GI50 (KM12)?
**A.** > 100 µM (inactive)

**Q.** What about the GI50 (UACC-257) of the same molecule?
**A.** > 100 µM (inactive)

**Q.** And the GI50 (OVCAR-3)?
**A.** 81.8 µM (inactive)

**Q.** What about the GI50 (A498) of the same molecule?
**A.** > 100 µM (inactive)

**Q.** What about the GI50 (NCI-H460) of the same molecule?
**A.** > 100 µM (inactive)

**Q.** What about the GI50 (SF-295) of the same molecule?
**A.** 67.3 µM (inactive)

**Q.** What about the GI50 (OVCAR-5) of the same molecule?
**A.** > 100 µM (inactive)

**Q.** And the GI50 (IGROV-1)?
**A.** > 100 µM (inactive)

**Q.** What about the GI50 (K562) of the same molecule?
**A.** 46.8 µM (inactive)

**Q.** What about the GI50 (DMS-273) of the same molecule?
**A.** 53.2 µM (inactive)

**Q.** For `Cc1ccc(C)c2c1C1CCCCC3(OCCCO3)C21O` (stereo not drawn), which GI50 (M19-MEL) is on record?
**A.** > 100 µM (inactive)

**Q.** What about the GI50 (RXF 393) of the same molecule?
**A.** > 100 µM (inactive)

**Q.** What about the GI50 (SF-539) of the same molecule?
**A.** > 100 µM (inactive)

**Q.** What about the GI50 (SK-MEL-2) of the same molecule?
**A.** > 100 µM (inactive)

**Q.** What about the GI50 (SK-MEL-28) of the same molecule?
**A.** > 100 µM (inactive)

**Q.** And the GI50 (TK-10)?
**A.** > 100 µM (inactive)

**Q.** What about the GI50 (SW-620) of the same molecule?
**A.** > 100 µM (inactive)

**Q.** What about the GI50 (SF-268) of the same molecule?
**A.** > 100 µM (inactive)

**Q.** What about the GI50 (U-251) of the same molecule?
**A.** > 100 µM (inactive)

**Q.** And the GI50 (SNB-19)?
**A.** > 100 µM (inactive)

**Q.** And the GI50 (SN12C)?
**A.** > 100 µM (inactive)

**Q.** And the GI50 (NCI-H23)?
**A.** > 100 µM (inactive)

**Q.** And the GI50 (KM-20L2)?
**A.** > 100 µM (inactive)

**Q.** What about the GI50 (HCC 2998) of the same molecule?
**A.** > 100 µM (inactive)

**Q.** And the GI50 (NCI-H522)?
**A.** > 100 µM (inactive)

**Q.** And the GI50 (LXFL 529)?
**A.** > 100 µM (inactive)

**Q.** What about the GI50 (UO-31) of the same molecule?
**A.** > 100 µM (inactive)

**Q.** And the GI50 (UACC-62)?
**A.** > 100 µM (inactive)

**Q.** And the GI50 (LOX IMVI)?
**A.** > 100 µM (inactive)

**Q.** What about the GI50 (HL-60) of the same molecule?
**A.** > 100 µM (inactive)

**Q.** And the GI50 (MOLT-4)?
**A.** > 100 µM (inactive)

**Q.** What about the GI50 (SK-OV-3) of the same molecule?
**A.** > 100 µM (inactive)

**Q.** What about the GI50 (HCT-116) of the same molecule?
**A.** > 100 µM (inactive)

**Q.** What about the GI50 (DMS-114) of the same molecule?
**A.** 80 µM (inactive)

**Q.** And the GI50 (OVCAR-8)?
**A.** > 100 µM (inactive)

**Q.** And the GI50 (DLD-1)?
**A.** > 100 µM (inactive)

**Q.** And the GI50 (RPMI-8226)?
**A.** > 100 µM (inactive)

**Q.** And the GI50 (786-0)?
**A.** > 100 µM (inactive)

**Q.** What about the GI50 (HCT-15) of the same molecule?
**A.** > 100 µM

**Q.** What about the GI50 (OVCAR-4) of the same molecule?
**A.** > 100 µM (inactive)

**Q.** What about the GI50 (CCRF-CEM) of the same molecule?
**A.** > 100 µM (inactive)

**Q.** And the GI50 (SNB-78)?
**A.** > 100 µM (inactive)

**Q.** And the GI50 (ACHN)?
**A.** > 100 µM (inactive)

**Q.** What about the GI50 (A549) of the same molecule?
**A.** > 100 µM (inactive)

**Q.** And the GI50 (SK-MEL-5)?
**A.** > 100 µM (inactive)

**Q.** And the GI50 (COLO 205)?
**A.** > 100 µM (inactive)

**Q.** And the GI50 (NCI-H226)?
**A.** > 100 µM (inactive)

**Q.** And the GI50 (HOP-18)?
**A.** 17.1 µM (inactive)

**Q.** What about the GI50 (Malme-3M) of the same molecule?
**A.** > 100 µM (inactive)

**Q.** What about the GI50 (HT-29) of the same molecule?
**A.** > 100 µM (inactive)

**Q.** And the GI50 (SNB-75)?
**A.** 31.7 µM (inactive)

**Q.** And the GI50 (HOP-62)?
**A.** > 100 µM (inactive)

**Q.** What about the GI50 (KM12) of the same molecule?
**A.** > 100 µM (inactive)

**Q.** And the GI50 (UACC-257)?
**A.** > 100 µM (inactive)

**Q.** What about the GI50 (OVCAR-3) of the same molecule?
**A.** 51.4 µM (inactive)

**Q.** What about the GI50 (A498) of the same molecule?
**A.** > 100 µM (inactive)

**Q.** And the GI50 (NCI-H460)?
**A.** > 100 µM (inactive)

**Q.** And the GI50 (SF-295)?
**A.** > 100 µM (inactive)

**Q.** And the GI50 (OVCAR-5)?
**A.** > 100 µM (inactive)

**Q.** And the GI50 (M14)?
**A.** > 100 µM (inactive)

**Q.** What about the GI50 (CAKI-1) of the same molecule?
**A.** > 100 µM (inactive)

**Q.** And the GI50 (IGROV-1)?
**A.** > 100 µM (inactive)

**Q.** What about the GI50 (K562) of the same molecule?
**A.** > 100 µM (inactive)

**Q.** And the GI50 (DMS-273)?
**A.** > 100 µM (inactive)
